Data from patent publication US11584759B2, “Macrocyclic kinase inhibitor” (HITGEN INC., priority 2018, dated 2023).

Tests used:
TRKA Protein (wild type) = target: T1, TRKA Protein (wild type) (Homo sapiens, UniProt P04629); test: Detection of TRK inhibitory activity (ADP-Glo kinase assay), TRKA wild type; type: biochemical; conditions: 35 min at room temperature
T1 construct: purchased abcam ab60887
Description: (§1) An enzyme reaction buffer was prepared containing 25 mM MOPS, 5 mM MgCl2, 500 μM DTT and 0.005% Triton, and then adjusted to pH 7.5.
(§2) The test compound was diluted with DMSO to 200 times of the desired final concentration, and mixed evenly, then 3 μL of the solution was pipetted to 117 μL of enzyme reaction buffer and mixed thoroughly. Then, 3 μL of the enzyme reaction buffer containing the test compound was pipetted to a 96-well PCR plate. The positive and negative control wells were filled with 3 μL of enzyme reaction buffer containing 2.5% DMSO, respectively. TRK protein was diluted to 0.4 ng/μL with the enzyme reaction buffer, and 6 μL of diluted TRK protein was added to each well except for the well for the blank control group, in which 6 μL of the enzyme reaction buffer was added. The reaction plate was centrifuged at 1000 rpm/min for 1 minute, and the compound and TRK were pre-incubated at room temperature for 10 minutes. A mixed solution with ATP at a concentration of 160 μM and substrate at a concentration of 1 μM was prepared with the enzyme reaction buffer, and 6 μL of the mixed solution was added to each reaction well. The reaction plate was centrifuged at 1000 rpm/min for 1 minute, and incubated at room temperature for 35 minutes. After the enzyme reaction was completed, 15 μL of ADP-Glo was added to each reaction well. The reaction plate was centrifuged at 1000 rpm/min for 1 minute, and incubated at room temperature for 40 minutes. Then 15 μL of the reaction solution from each well was transferred to a 384-well plate, and then 15 μL of detection substrate was added to each corresponding well of the 384-well plate. The 384-well plate was centrifuged at 1000 rpm/min for 1 minute, and incubated at room temperature for 40 minutes. After the reaction, a microplate reader was used to read the cold luminescence signal value in the 384-well plate.
(§3) The residual viability percentage of each concentration was calculated with the following formula: Residual viability (%)=100*(Lumincompond−Luminblank control)/(Luminpostive control−Luminblank control)
(§4) Then, GraphPad 5.0 was fitted to the effect curve to calculate the IC50 value.

TRKA (G667C) = TRKA (G667C) (Homo sapiens, UniProt P04629, G667C); test: Detection of TRK inhibitory activity (ADP-Glo kinase assay), TRKA (G667C); type: biochemical
Sequence of TRKA (G667C) (P04629 33-796 G667C): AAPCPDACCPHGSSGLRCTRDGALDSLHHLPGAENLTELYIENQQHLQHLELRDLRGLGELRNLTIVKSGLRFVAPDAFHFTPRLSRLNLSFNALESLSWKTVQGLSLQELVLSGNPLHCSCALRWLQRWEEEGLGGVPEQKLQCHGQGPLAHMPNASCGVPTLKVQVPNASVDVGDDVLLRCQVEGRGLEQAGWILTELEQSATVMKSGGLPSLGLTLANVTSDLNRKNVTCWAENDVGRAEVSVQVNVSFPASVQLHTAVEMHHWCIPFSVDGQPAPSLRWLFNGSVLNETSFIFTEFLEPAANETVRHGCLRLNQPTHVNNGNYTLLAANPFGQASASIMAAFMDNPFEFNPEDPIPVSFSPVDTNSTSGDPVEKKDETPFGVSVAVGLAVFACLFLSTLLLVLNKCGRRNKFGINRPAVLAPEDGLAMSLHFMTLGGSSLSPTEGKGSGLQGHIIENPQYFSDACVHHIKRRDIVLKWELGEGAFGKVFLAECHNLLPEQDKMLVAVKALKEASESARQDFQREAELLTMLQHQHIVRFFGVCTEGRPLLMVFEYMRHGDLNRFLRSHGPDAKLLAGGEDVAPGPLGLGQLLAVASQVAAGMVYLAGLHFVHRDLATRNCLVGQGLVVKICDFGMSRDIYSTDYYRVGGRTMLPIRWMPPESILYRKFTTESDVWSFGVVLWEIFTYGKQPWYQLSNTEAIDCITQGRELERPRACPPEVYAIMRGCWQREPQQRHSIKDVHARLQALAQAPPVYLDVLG
Description: as §1, §2, §3, §4

[1] = tested on: Ba/F3 ETV6-NTRK3-G623R cell line; test: Cell experiment, CellTiter-Glo viability, Ba/F3 ETV6-NTRK3-G623R; type: cell-based; conditions: Mus musculus, BaF3, 72 hours, CTG
Description: (§5) Cell culture and seeding: (1) cells in logarithmic growth phase were harvested and counted using a […]. The cell viability was detected by trypan blue exclusion method to ensure that the cell viability was above 90%. (2) The cell concentration was adjusted; and 90 μl of cell suspension was added to the 96-well plate.
(§6) 10 μl of drug solution was added to each well in a 96-well plate inoculated with cells, triplicate per concentration.
(§7) End-point for reading: (1) The CTG reagent was thawed and the cell plate was equilibrated to room temperature for 30 minutes. (2) Equal volume of CTG solution was added to each well. (3) The plated was shaken on an orbital shaker for 5 minutes to lyse the cells. (4) The cell plate was placed at room temperature for 20 minutes to stabilize the cold light signal. (5) The cold light value was read.
(§8) GraphPad Prism 7.0 software was used to analyze the data, and nonlinear S-curve regression was fitted the data to get the dose-effect curve, and the IC50 value was calculated therefrom. Cell survival (%)=(Lumtest drug−Lumculture control)/(Lumcell control−Lumculture control)×100%.

[2] = tested on: Ba/F3 LMNA-NTRK1-G595R cell line; test: Cell experiment, CellTiter-Glo viability, Ba/F3 LMNA-NTRK1-G595R; type: cell-based; conditions: Mus musculus, BaF3, 72 hours, CTG
Description: as §5, §6, §7, §8

[3] = tested on: Ba/F3 LMNA-NTRK1-F589L cell line; test: Cell experiment, CellTiter-Glo viability, Ba/F3 LMNA-NTRK1-F589L; type: cell-based; conditions: Mus musculus, BaF3, 72 hours, CTG
Description: as §5, §6, §7, §8

NIH-3T3ΔTRKA G595R cells = test: Drug Efficacy Test 1: tumor growth in Balb/c Nude mice; type: in vivo, mouse; conditions: subcutaneous NIH-3T3ΔTRKA G595R tumors, start at about 100 mm^3, FIG. 1
Description: NIH-3T3 ATRKA G595R cells are polyclonal stable transfected cell lines constructed based on TRKA mutation by our laboratory. Balb/c Nude mice, female, 6-8 weeks old, weighing 18-22 grams, were purchased from Chengdu Dashuo Experimental Animal Co., Ltd.
(§9) NIH-3T3 ATRKA G595R cells in the logarithmic growth phase were collected, counted and adjusted to a suitable cell density. 0.1 mL cell suspension (2×10^6 cells) was inoculated subcutaneously into the right back of each mouse. When the average tumor volume reached about 100 mm^3, mice were randomly divided into groups (m=6) for administrating the compound of Example 1 in solvent PEG400:HPBCD (20%, W/V) (3:1).
(§10) At the end of the experiment, all surviving experimental animals were sacrificed.
(§11) Tumor volume was calculated using formula: V=0.5 (a×b^2), wherein a and b represent the long and short diameters of the tumor, respectively.
(§12) Graph Pad Prism 6.0 was used for graph analysis.

[4] = tested on: BA/F3 ETV6-NTRK3 G623R cells; test: Drug Efficacy Test 2: tumor growth in Balb/c Nude mice; type: in vivo, mouse; conditions: subcutaneous BA/F3 ETV6-NTRK3 G623R tumors, start at about 100 mm^3, FIG. 2
Description: BA/F3 ETV6-NTRK3 G623R cells are polyclonal stable transfected cell lines constructed based on TRKA mutation by our laboratory. Balb/c Nude mice, female, 6-8 weeks old, weighing 18-22 grams, were purchased from Chengdu Dashuo Experimental Animal Co., Ltd.
as §9, with “BA/F3 ETV6-NTRK3 G623R” for “NIH-3T3 ATRKA G595R”, “in” for “in the”, “(m=5)” for “(m=6)”
as §10, §11
GraphPadPrism6.0 was used for graph analysis.

[5] = tested on: BA/F3 ETV6-NTRK3 G623R cells; test: Drug Efficacy Test 3: tumor growth in SCID mice; type: in vivo, mouse; conditions: subcutaneous BA/F3 ETV6-NTRK3 G623R tumors, start at about 300 mm^3, FIG. 3
Description: BA/F3 ETV6-NTRK3 G623R cells are polyclonal stable transfected cell lines constructed based on TRKA mutation by our laboratory. SCID mice, female, 6-8 weeks old, weighing 18-22 grams, were purchased from Chengdu Dashuo Experimental Animal Co., Ltd.
as §9, with “BA/F3 ETV6-NTRK3 G623R” for “NIH-3T3 ATRKA G595R”, “in” for “in the”, “300” for “100”, “(m=5)” for “(m=6)”
as §10, §11, §12

T1 sequence (P04629 33-796): as the sequence (P04629 33-796 G667C) above, with C635G counted along it

| Compound | IC50 (TRKA Protein (wild type)) [nM] | IC50 (TRKA (G667C)) [nM] | IC50 [1] [nM] | IC90 [1] [nM] | IC50 [2] [nM] | IC90 [2] [µM] | IC50 [3] [nM] | IC90 [3] [nM] | Inhibition of tumor growth (tumor volume) (NIH-3T3ΔTRKA G595R cells) | Inhibition of tumor growth (tumor volume) [4] | Inhibition of tumor growth (tumor volume) [5] |
| --- | --- | --- | --- | --- | --- | --- | --- | --- | --- | --- | --- |
| C[C@@H]1CCOc2ccc(F)cc2[C@H]2CCCN2c2ccc3ncc(C#N)c(c3n2)N1 [Example 1, (6R,16R)-9-fluoro-16-methyl-3-oxa-2,17,21,25-tetraazapentacyclo [16.6.2.0^2,^6.0^7,^12.0^22,^26]hexacosane-1(25),7,9,11,18(26),19,21,23-octane-19-nitrile] | < 50 | < 50 | 17.3 | 42.3 | 2.5 | 0.0832 | 3.8 | 17.1 | inhibits the growth | inhibits the growth | inhibits the growth |
| CN1CCN(c2ccc(C(=O)Nc3n[nH]c4ccc(Cc5cc(F)cc(F)c5)cc34)c(NC3CCOCC3)c2)CC1 [RXDX-101, reference compound] |  |  | 466 | 843 | 1730 | 6.12 | < 1 | 1.4 |  |  |  |
